# Measured values: ChEMBL document CHEMBL1201862, “PubChem BioAssay data set” (2004)
# Active and inactive are the calls of the source.
# How the values were obtained:
# Assay type in all cases: functional
# [1] = target: Multidrug resistance protein CDR1 (Candida albicans, UniProt P43071); experiment: CaCDR1 efflux pump inhibitors in yeast, dose response, S. cerevisiae AD1-8u, singleplex, Cherry Pick1 hits (AID 588606)
# [2] = target: Benomyl/methotrexate resistance protein (Candida albicans, UniProt P28873); experiment: CaMdr1 efflux pump inhibitor potency, dose response, singleplex, Cherry Pick1 hits (AID 588608)
# [3] = target: Multidrug resistance protein CDR2 (Candida albicans (strain SC5314 / ATCC MYA-2876) (Yeast), UniProt P78595); experiment: CaCDR2 efflux pump inhibitors in yeast, dose response, S. cerevisiae AD1-8u, singleplex, Cherry Pick1 hits (AID 588604)
# [4] = target: Melanin-concentrating hormone receptor 1 (Homo sapiens, UniProt Q99705); experiment: Late-stage fluorescence-based counterscreen for antagonists of the G-protein coupled receptor 7 (GPR7): cell-based dose response assay to identify antagonists of the melanin-concentrating hormone receptor 1 (MCHR1) Set 5.
# [5] = target: Neuropeptides B/W receptor type 1 (Homo sapiens, UniProt P48145); experiment: GPR7 antagonist potency, late-stage follow-up, cell-based, fluorescence, dose response, set 5 (AID 588566)
# [6] = target: Ribosomal protein S6 kinase alpha-3 (Homo sapiens, UniProt P51812);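 also: measured within a kinome-wide profiling panel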
# [7] = target: Mitogen-activated protein kinase kinase kinase kinase 4 (Homo sapiens, UniProt O95819)
# [8] = target: Dual specificity protein kinase CLK4 (Homo sapiens, UniProt Q9HAZ1)
# [9] = target: Vascular endothelial growth factor receptor 2 (Homo sapiens, UniProt P35968)
# Chain of Vascular endothelial growth factor receptor 2 (P35968 whole entry): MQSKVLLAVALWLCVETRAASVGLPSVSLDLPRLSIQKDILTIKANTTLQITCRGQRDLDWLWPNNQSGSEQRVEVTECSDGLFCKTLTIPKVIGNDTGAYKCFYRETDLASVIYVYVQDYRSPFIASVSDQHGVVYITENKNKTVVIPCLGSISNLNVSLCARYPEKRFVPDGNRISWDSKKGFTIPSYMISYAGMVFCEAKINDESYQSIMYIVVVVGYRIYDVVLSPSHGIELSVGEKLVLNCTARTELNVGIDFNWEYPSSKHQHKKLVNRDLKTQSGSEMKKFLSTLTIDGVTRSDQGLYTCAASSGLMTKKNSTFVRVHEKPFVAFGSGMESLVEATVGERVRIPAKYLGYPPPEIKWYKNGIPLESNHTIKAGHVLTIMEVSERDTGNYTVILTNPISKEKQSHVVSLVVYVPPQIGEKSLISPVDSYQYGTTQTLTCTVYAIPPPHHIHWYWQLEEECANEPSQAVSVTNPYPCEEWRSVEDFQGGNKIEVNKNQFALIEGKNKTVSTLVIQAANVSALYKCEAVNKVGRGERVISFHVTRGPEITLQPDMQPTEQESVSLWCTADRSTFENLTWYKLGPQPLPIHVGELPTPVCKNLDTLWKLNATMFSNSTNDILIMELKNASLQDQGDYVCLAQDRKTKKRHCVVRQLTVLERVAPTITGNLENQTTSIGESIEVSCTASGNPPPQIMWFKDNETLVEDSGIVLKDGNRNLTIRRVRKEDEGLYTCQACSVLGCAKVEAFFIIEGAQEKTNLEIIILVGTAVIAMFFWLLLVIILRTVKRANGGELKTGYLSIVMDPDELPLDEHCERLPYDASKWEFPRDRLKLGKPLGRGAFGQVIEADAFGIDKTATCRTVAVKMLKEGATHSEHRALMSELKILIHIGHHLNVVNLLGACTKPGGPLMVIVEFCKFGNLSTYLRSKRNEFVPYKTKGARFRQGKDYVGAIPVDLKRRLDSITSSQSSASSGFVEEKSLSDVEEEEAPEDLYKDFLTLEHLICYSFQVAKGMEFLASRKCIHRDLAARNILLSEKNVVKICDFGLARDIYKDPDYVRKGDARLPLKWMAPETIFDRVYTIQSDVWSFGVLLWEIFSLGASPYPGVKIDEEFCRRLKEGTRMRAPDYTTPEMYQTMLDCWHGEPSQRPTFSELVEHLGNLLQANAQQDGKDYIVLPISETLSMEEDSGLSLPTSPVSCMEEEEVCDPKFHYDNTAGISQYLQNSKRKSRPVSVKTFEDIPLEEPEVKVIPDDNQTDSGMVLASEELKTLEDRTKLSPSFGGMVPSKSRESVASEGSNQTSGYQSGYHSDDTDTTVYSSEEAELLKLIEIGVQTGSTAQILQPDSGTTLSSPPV
# [10] = target: T1, Serine/threonine-protein kinase D3 (Homo sapiens, UniProt O94806);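 also: determined within a kinase panel screen, with PRKCN as the panel member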
# T1 sequence (O94806 whole entry): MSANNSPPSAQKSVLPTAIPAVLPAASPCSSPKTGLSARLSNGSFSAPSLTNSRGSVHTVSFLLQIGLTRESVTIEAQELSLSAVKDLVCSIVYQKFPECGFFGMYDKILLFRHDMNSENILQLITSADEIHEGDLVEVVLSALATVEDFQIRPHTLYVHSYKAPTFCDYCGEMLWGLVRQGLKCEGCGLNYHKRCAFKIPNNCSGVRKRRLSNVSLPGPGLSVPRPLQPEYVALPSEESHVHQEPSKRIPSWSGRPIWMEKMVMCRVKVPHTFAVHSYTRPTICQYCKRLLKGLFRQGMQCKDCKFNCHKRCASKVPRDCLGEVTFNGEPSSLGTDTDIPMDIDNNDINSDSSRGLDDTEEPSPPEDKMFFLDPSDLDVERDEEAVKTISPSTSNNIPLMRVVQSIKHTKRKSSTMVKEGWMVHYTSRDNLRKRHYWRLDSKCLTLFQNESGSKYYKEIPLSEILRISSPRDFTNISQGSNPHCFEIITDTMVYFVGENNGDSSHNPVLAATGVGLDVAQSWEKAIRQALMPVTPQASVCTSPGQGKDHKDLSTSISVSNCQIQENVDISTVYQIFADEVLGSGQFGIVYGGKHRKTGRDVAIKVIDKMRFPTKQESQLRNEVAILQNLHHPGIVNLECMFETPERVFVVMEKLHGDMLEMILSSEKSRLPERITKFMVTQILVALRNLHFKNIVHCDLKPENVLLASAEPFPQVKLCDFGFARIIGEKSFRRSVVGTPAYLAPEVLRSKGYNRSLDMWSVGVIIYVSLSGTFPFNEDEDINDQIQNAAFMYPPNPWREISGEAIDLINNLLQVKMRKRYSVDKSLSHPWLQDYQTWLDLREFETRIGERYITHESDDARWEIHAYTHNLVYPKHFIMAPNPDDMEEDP
# [11] = target: Casein kinase I isoform alpha (Homo sapiens, UniProt P48729)
# Chain of Casein kinase I isoform alpha (P48729 whole entry, canonical isoform): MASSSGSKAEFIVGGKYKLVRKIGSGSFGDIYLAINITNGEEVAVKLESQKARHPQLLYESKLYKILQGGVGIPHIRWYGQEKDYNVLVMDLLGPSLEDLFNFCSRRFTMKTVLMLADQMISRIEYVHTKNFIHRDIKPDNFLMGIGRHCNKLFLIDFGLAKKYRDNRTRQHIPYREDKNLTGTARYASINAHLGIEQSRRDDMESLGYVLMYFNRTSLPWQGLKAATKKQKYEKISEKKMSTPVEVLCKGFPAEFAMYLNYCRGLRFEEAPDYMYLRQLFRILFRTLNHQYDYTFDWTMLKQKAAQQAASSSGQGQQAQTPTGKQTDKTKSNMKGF
# [12] = target: Proto-oncogene tyrosine-protein kinase receptor Ret (Homo sapiens, UniProt P07949);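 also: measured within a kinome-wide profiling panel, RET as the panel member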
# [13] = target: Cyclin-dependent kinase 8 (Homo sapiens, UniProt P49336); experiment: Navigating the Kinome. Panel member name: CDK8
# [14] = target: Cyclin-dependent kinase 5 (Homo sapiens, UniProt Q00535);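 also: CDK5 measured as one member of a kinase profiling panel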
# [15] = target: Leukocyte tyrosine kinase receptor (Homo sapiens, UniProt P29376); experiment: Navigating the Kinome. Panel member name: LTK
# Aurora kinase B = Aurora kinase B (Homo sapiens, UniProt Q96GD4)
# LIM domain kinase 1 = LIM domain kinase 1 (Homo sapiens, UniProt P53667); experiment: Navigating the Kinome. Panel member name: LIMK1
# [16] = target: Cyclin-dependent kinase 7 (Homo sapiens, UniProt P50613);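 also: value comes from a kinome-wide kinase profiling panel in which CDK7 is one member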
# Chain of Cyclin-dependent kinase 7 (P50613 whole entry): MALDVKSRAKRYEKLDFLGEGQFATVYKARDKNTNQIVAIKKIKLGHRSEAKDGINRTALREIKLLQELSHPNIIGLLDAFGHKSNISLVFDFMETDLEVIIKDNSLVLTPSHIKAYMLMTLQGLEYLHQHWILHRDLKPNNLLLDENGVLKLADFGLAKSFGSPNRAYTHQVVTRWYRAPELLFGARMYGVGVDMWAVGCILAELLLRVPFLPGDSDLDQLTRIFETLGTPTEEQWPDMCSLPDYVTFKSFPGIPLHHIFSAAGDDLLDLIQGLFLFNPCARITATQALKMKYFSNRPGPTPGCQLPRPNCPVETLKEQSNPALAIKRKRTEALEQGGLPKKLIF
# [17] = target: Death-associated protein kinase 3 (Homo sapiens, UniProt O43293);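 also: measured as one member of a kinome-wide profiling panel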
# Chain of Death-associated protein kinase 3 (O43293 whole entry): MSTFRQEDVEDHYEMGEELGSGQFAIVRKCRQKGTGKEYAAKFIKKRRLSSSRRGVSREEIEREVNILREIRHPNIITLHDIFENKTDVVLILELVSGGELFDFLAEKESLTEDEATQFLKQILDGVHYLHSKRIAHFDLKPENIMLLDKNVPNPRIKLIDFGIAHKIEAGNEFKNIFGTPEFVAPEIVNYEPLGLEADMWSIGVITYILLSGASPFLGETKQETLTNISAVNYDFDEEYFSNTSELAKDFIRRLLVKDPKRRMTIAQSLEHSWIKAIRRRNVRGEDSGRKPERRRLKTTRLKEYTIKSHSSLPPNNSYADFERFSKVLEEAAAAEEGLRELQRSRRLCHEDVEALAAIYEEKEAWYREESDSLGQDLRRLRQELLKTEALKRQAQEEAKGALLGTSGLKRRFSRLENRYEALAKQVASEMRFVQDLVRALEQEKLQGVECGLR
# [18] = target: Fibroblast growth factor receptor 1 (Homo sapiens, UniProt P11362)
# [19] = target: Serine/threonine-protein kinase TBK1 (Homo sapiens, UniProt Q9UHD2); experiment: Navigating the Kinome. Panel member name: TBK1
# [20] = target: ALK tyrosine kinase receptor (Homo sapiens, UniProt Q9UM73);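 also: ALK tested as one member of a kinase panel screen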
# Chain of ALK tyrosine kinase receptor (Q9UM73 whole entry): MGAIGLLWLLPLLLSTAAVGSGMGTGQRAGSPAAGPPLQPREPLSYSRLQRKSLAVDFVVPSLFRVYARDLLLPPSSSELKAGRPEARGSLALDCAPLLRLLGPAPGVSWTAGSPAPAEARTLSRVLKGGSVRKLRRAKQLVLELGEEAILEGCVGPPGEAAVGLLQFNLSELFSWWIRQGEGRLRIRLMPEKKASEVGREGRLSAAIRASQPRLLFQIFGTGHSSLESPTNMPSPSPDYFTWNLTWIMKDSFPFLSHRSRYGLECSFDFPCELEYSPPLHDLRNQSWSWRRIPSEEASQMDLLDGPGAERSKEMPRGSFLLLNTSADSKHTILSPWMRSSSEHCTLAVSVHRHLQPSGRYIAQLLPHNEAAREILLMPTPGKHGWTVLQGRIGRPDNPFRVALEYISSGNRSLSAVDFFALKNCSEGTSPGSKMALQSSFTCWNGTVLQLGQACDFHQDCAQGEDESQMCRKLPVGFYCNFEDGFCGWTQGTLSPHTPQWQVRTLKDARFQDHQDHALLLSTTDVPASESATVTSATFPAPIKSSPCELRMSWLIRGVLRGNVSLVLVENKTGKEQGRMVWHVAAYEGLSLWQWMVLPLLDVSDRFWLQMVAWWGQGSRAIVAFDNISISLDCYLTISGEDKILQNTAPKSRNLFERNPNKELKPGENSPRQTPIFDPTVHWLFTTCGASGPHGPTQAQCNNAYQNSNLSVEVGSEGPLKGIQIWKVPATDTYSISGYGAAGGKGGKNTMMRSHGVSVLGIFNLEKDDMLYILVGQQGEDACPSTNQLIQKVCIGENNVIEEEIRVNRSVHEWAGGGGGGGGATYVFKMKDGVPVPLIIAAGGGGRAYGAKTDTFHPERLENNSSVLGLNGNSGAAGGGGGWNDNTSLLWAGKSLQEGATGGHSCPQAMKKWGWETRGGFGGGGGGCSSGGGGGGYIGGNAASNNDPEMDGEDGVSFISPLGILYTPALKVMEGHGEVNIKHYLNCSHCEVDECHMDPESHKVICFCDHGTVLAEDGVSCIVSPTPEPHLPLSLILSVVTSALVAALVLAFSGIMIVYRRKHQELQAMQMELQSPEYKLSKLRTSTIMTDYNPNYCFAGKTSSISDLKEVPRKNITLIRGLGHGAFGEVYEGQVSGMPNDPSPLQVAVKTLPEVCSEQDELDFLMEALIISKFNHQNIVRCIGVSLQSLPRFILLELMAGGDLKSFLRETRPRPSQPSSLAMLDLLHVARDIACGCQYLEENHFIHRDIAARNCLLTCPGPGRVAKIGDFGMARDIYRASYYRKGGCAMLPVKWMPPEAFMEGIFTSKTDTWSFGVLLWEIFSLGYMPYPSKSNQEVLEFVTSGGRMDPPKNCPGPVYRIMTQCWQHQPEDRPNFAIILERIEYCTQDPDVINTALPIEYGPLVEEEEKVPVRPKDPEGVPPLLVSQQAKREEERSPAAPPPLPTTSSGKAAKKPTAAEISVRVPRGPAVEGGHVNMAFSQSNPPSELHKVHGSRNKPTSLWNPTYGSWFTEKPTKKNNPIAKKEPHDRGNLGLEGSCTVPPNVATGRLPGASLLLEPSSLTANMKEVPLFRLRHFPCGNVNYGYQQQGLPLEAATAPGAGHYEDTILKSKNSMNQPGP
# [21] = target: Macrophage colony-stimulating factor 1 receptor (Homo sapiens, UniProt P07333);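 also: value comes from the Navigating the Kinome screening panel, CSF1R member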
# Chain of Macrophage colony-stimulating factor 1 receptor (P07333 whole entry): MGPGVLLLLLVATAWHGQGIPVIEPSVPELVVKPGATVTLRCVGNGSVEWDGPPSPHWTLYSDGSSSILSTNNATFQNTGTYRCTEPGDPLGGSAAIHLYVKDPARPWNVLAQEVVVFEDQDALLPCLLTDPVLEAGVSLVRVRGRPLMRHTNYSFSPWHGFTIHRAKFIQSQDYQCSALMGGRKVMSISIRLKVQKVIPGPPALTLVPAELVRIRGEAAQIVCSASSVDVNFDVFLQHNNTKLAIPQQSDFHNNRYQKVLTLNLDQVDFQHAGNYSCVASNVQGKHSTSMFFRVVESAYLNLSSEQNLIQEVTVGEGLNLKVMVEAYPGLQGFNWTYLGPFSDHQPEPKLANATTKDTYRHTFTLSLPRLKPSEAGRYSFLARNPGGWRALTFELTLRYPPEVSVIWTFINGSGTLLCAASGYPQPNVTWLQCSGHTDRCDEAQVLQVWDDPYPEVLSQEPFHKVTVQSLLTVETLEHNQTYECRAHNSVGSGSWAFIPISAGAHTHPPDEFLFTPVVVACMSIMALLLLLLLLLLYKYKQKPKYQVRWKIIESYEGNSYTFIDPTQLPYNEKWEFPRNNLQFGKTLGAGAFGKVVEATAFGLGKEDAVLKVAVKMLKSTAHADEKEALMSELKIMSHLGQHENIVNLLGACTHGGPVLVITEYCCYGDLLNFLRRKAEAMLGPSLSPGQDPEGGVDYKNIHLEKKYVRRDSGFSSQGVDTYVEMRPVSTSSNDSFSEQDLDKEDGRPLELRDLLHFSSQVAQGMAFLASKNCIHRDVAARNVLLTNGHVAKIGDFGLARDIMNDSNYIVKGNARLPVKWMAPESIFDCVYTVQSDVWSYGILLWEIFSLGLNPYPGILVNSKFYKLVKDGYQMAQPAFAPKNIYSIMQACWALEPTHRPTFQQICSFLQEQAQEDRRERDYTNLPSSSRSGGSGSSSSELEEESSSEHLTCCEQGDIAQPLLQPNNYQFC
# [22] = target: Leucine-rich repeat serine/threonine-protein kinase 2 (Homo sapiens, UniProt Q5S007);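 also: value from a broad kinome-wide panel profiling study in which LRRK2 was one of the kinases tested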
# [23] = target: T2, Serine/threonine-protein kinase Chk1 (Homo sapiens, UniProt O14757);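 also: measured as one member of a kinome-wide kinase profiling panel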
# T2 sequence (O14757 whole entry): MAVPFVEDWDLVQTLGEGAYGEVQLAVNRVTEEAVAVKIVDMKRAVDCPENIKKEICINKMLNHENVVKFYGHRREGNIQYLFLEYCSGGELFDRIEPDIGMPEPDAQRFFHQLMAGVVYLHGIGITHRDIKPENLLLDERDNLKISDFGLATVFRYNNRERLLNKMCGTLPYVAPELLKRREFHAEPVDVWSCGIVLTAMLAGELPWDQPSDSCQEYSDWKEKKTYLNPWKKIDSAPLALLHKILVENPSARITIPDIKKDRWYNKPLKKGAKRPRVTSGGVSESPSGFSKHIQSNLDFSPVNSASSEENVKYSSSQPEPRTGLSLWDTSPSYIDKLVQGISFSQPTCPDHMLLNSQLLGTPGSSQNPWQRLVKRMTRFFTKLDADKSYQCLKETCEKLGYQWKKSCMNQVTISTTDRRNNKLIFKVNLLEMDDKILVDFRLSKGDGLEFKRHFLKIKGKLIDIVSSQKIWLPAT
# [24] = target: T3, Tyrosine-protein kinase receptor TYRO3 (Homo sapiens, UniProt Q06418);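 also: TYRO3 value obtained as one member of a kinome-wide profiling panel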
# T3 sequence (Q06418 whole entry): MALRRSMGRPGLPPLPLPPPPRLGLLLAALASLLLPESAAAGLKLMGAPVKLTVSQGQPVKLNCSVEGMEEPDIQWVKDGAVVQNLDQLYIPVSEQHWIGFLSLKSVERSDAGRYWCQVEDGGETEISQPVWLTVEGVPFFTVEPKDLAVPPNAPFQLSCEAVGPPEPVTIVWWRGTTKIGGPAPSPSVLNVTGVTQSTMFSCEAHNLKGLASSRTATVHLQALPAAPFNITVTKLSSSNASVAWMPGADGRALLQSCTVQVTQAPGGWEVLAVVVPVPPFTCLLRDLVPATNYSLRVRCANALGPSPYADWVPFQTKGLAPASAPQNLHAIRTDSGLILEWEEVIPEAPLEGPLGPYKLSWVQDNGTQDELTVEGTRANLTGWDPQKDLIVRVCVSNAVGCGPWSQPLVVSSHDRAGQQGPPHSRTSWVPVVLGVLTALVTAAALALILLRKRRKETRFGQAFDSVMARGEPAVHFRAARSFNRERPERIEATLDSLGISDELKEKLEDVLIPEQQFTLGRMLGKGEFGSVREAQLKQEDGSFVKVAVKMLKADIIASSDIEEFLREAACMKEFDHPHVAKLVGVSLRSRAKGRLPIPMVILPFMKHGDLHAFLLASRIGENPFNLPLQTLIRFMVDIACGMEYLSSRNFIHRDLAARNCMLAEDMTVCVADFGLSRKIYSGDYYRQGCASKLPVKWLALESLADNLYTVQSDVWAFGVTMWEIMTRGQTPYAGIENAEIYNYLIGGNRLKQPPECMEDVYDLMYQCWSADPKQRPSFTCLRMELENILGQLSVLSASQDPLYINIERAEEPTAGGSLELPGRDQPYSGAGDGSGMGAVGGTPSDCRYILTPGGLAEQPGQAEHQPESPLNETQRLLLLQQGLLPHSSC
# [25] = target: Dual specificity tyrosine-phosphorylation-regulated kinase 1B (Homo sapiens, UniProt Q9Y463); experiment: Navigating the Kinome. Panel member name: DYRK1B
# [26] = target: Vascular endothelial growth factor receptor 1 (Homo sapiens, UniProt P17948);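 also: measured within a kinome-wide profiling panel, FLT1 as the panel member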
compound,measurement,setting,value
COc1cc(OC)cc(-c2sc3ccc(OC)cc3c2-c2ccc(OCCN3CCOCC3)cc2)c1,EC50,[1],11.3 µM (active)
same,EC50,[2],13.7 µM (active)
same,EC50,[3],38.5 µM (active)
O=c1c(Cl)c(Oc2ccc3c(c2)OCO3)cnn1Cc1cccc2ccccc12,IC50,[4],17.8 µM (inactive)
same,IC50,[5],3.3 µM (active)
Nc1ncnc2c1C(=O)NCCN2,Ki,[6],79.4 µM (active)
same,Ki,[7],31.6 µM (active)
same,Ki,[8],25.1 µM (active)
same,Ki,[9],12.6 µM (active)
same,Ki,[10],100 µM (active)
same,Ki,[11],20 µM (active)
same,Ki,[12],31.6 µM (active)
same,Ki,[13],100 µM (active)
same,Ki,[14],50.1 µM (active)
same,Ki,[15],39.8 µM (active)
same,Ki,Aurora kinase B,31.6 µM (active)
same,Ki,LIM domain kinase 1,20 µM (active)
same,Ki,[16],63.1 µM (active)
same,Ki,[17],15.8 µM (active)
same,Ki,[18],100 µM (active)
same,Ki,[19],50.1 µM (active)
same,Ki,[20],63.1 µM (active)
same,Ki,[21],79.4 µM (active)
same,Ki,[22],31.6 µM (active)
same,Ki,[23],25.1 µM (active)
same,Ki,[24],63.1 µM (active)
same,Ki,[25],39.8 µM (active)
same,Ki,[26],25.1 µM (active)
